Key:
[1] = target: T1, cGMP-specific 3',5'-cyclic phosphodiesterase (Homo sapiens, UniProt O76074); assay: Inhibition of PDE5A (unknown origin) using […] as substrate incubated for 1 hr by fluorescence polarization assay
[2] = target: T1, cGMP-specific 3',5'-cyclic phosphodiesterase; assay: Inhibition of PDE5A (unknown origin) using […] as substrate at 100 nM incubated for 1 hr by fluorescence polarization assay relative to control

SMILES	IC50 [1] [nM]	inhibition [2] [%]
Cc1ccc(-c2c(C#N)c(=O)n(Cc3ccccc3)c3c(NC(C)c4ccccn4)cccc23)cc1 (stereo not given)	10	
CC(Nc1cccc2c(C3CCCCC3)c(C#N)c(=O)n(Cc3ccccc3)c12)c1ccccn1 (stereo not given)	34	
COc1ccc(-c2c(C#N)c(=O)n(Cc3ccccc3)c3c(N[C@@H](C)c4ccccn4)cccc23)cc1	8	
Cc1ccc(-c2c(C#N)c(=O)n(Cc3ccccc3)c3c(NCc4ccccn4)cccc23)cc1	20	
COc1ccc(Cn2c(=O)c(C#N)c(-c3ccc(C)cc3)c3cccc(NC(C)c4ccccn4)c32)cc1Cl (stereo not given)		12
Cc1ccc(-c2c(C#N)c(=O)n(CC3CCCC3)c3c(NC(C)c4ccccn4)cccc23)cc1 (stereo not given)	55	
Cc1ccc(-c2c(C#N)c(=O)n(Cc3ccc(F)cc3)c3c(NC(C)c4ccccn4)cccc23)cc1 (stereo not given)		5
Cc1ccc(-c2c(C#N)c(=O)n(Cc3ccccc3)c3cc(NC(C)c4ccccn4)ccc23)cc1 (stereo not given)	578	
Cc1ccc(-c2c(C#N)c(=O)n(Cc3ccccc3)c3c(NCc4ccccc4)cccc23)cc1	20	
CC(Nc1cccc2c(C3CCCC3)c(C#N)c(=O)n(Cc3ccccc3)c12)c1ccccn1 (stereo not given)		14
